According to the NIST ThermoML archive (doi:10.1021/je800026p):

Test: xn = mol fraction of the nth substance listed
Settings: 101 kPa, Liquid; for speed of sound: Sing-around technique in a fixed-path interferometer; for mass density: Vibrating tube method

CCCCCCOCCOCCO [2-(2-hexyloxyethoxy)ethanol] + CCCCN(CCCC)CCCC
Settings	mass density, 288.15 K [kg/m3]	mass density, 293.15 K [kg/m3]	mass density, 298.15 K [kg/m3]	mass density, 303.15 K [kg/m3]	mass density, 308.15 K [kg/m3]	speed of sound, 288.15 K [m/s]	speed of sound, 293.15 K [m/s]	speed of sound, 298.15 K [m/s]	speed of sound, 303.15 K [m/s]	speed of sound, 308.15 K [m/s]
x1 = 0.1168	797.427	793.696	789.759	785.812	782.055	1294	1274.9	1256	1237.3	1219
x1 = 0.1659	804.49	800.716	796.756	792.8	788.975	1298.2	1279.2	1260.3	1241.7	1223.4
x1 = 0.2092	810.815	806.993	803.027	799.078	795.2	1302.1	1283.1	1264.3	1245.8	1227.5
x1 = 0.2589	818.158	814.291	810.334	806.371	802.458	1306.8	1287.9	1269.2	1250.8	1232.5
x1 = 0.3155	826.596	822.69	818.738	814.795	810.825	1312.6	1293.8	1275.2	1256.8	1238.6
x1 = 0.3564	832.755	828.829	824.867	820.924	816.944	1316.9	1298.2	1279.7	1261.4	1243.2
x1 = 0.383	836.791	832.842	828.881	824.93	820.957	1319.8	1301.2	1282.7	1264.5	1246.4
x1 = 0.4544	847.683	843.729	839.761	835.783	831.821	1328	1309.5	1291.2	1273.2	1255.2
x1 = 0.5108	856.418	852.463	848.467	844.479	840.528	1334.9	1316.5	1298.3	1280.4	1262.6
x1 = 0.5568	863.63	859.691	855.668	851.665	847.701	1340.7	1322.4	1304.3	1286.5	1268.8
x1 = 0.6107	872.206	868.299	864.217	860.198	856.228	1347.7	1329.6	1311.6	1294	1276.4
x1 = 0.6683	881.543	877.641	873.531	869.475	865.486	1355.6	1337.5	1319.7	1302.2	1284.8
x1 = 0.6924	885.505	881.587	877.468	873.41	869.396	1358.9	1340.9	1323.2	1305.8	1288.4
x1 = 0.7544	895.808	891.893	887.746	883.674	879.592	1367.8	1350	1332.3	1315.2	1297.8
x1 = 0.7963	902.873	898.935	894.791	890.73	886.574	1373.9	1356.2	1338.7	1321.6	1304.4
x1 = 0.858	913.335	909.366	905.245	901.206	896.983	1383.2	1365.7	1348.3	1331.5	1314.2
x1 = 0.9079	921.784	917.773	913.7	909.674	905.434	1390.9	1373.6	1356.4	1339.6	1322.3
x1 = 0.9553	929.676	925.674	921.63	917.622	913.46	1398.4	1381.3	1364.2	1347.6	1330.2
